Values joined by “and” are separate entries in the source; they are usually repeats but may differ in a detail not shown here. Identical values can stand only once.
Tested on: MCF-7 cells, human transcripts
Test: Affymetrix U133 2.0 Plus microarray analysis of gene expression
Type: cell-based
Procedure: FIG. 4 depicts microarray analysis of changes in gene expression in MCF-7 cells treated with RAR agonist LGD1550 or RAR antagonist LG100815, plotted using GeneSpring software. The X axis represents different time points of treatment with RAR ligands (0 point correspond to cells cultured for 3 days with DMSO carrier).
To determine the effects of the RAR agonist and antagonist on the expression of essentially all the human genes, MCF-7 cells were treated with 100 nM of RAR agonist LGD1550 or 10 μM of RAR antagonist LG100815, concentrations that provide maximal induction of gene expression according to Q-PCR assays (as discussed above). Cells were treated for 24, 48 or 72 hrs, and total RNA from the untreated or treated cells was isolated using Qiagen's RNeasy Total RNA Isolation Kit. For gene expression profiling, RNA samples were provided to the microarray service facility of the Wadsworth Center Genomics Institute, which carried out biotinylated target preparation and hybridization with Affymetrix U 133 2.0 Plus oligonucleotide microarrays containing 56,000 probe sets representing 48,500 human transcripts. The hybridization signals were normalized using GCRMA procedure and analyzed using GeneSpring software (Silicone Genetics). […] The effects of the agonist and the antagonist also agreed with the results of the earlier analysis of the effects of RA on MCF-7 cells, with all 13 genes previously shown by RT-PCR to be induced in that system (Dokmanovic et al., 2002) also showing induction in the present microarray analysis (FIG. 4b).
RNA or protein products of genes that are induced to a similar level by both the RAR agonist and the RAR antagonist can be used as reporters in screening for compounds with properties similar to LG0100815. RNA or protein products of genes from this group (or promoter constructs for such genes) can be used as reporters in screening for compounds that mimic the effect of retinoids. Table 3, as shown below, lists a set of 508 genes chosen as preferred reporters. These genes were selected by being strongly (at least 2-fold) induced by both the agonist and the antagonist relative to untreated cells and showing no more than two-fold difference between their induction by the agonist and the antagonist. 62 genes listed at the top of Table 3 are particularly preferred reporters, as they are most strongly (at least 4-fold) induced by both the agonist and the antagonist. Table 4, as shown below, lists a set of 53 genes that can be used as preferred markers to discriminate between RARE-dependent and RARE-independent induction of transcription. These genes were chosen by being induced at least 3-fold by the agonist relative to untreated cells and also showing at least 4 times stronger induction by the agonist than by the antagonist. FIG. 6 plots the maximal fold induction of gene expression produced by the agonist versus that produced by the antagonist for the genes listed in Table 3 (particularly preferred reporters only) and in Table 4, with the corresponding trend lines. The relative effects of a tested compound on the genes in Table 3 and Table 4 should indicate whether the compound behaves as a RAR agonist or RAR antagonist. For example, one can select matching pairs of genes from Table 3 and Table 4 that are induced by the agonist to approximately the same degree. A compound that mimics the effects of the agonist should induce such genes to a similar level, whereas a compound that behaves like an antagonist should induce the gene from Table 3 to a much greater degree than the gene from Table 4.

[1] = MCF-7, LGD1550 100 nM, 24, 48 or 72 hrs
[2] = MCF-7, LGD1550 100 nM, 24, 48 or 72 hrs, listed as agonist

In the case of CC(/C=C/C=C(\C)c1cc(C(C)(C)C)cc(C(C)(C)C)c1)=C\C(=O)O [LGD1550], the “Maximal effect, Fold induction” value (Genbank AI911972, probe 230780_at) is reported as 3.89 fold, the “Maximal effect, Fold induction” value (Genbank AW268719, probe 236798_at) is reported as 2.03 fold and the “Maximal effect, Fold induction” value (Genbank AW612407, probe 230098_at) is reported as 2.32 fold. For the same molecule, the “Maximal effect, Fold induction” value (Genbank BF038869, probe 235322_at) was 2.13 fold, the “Maximal effect, Fold induction” value (Genbank CA442342, probe 1556097_at) was 3.11 fold and the “HOXA4 fold induction by the agonist” value (MCF-7, LGD1550 100 nM) was 7.8 fold. For the same molecule, the “RBP1 fold induction by the agonist” value (MCF-7, LGD1550 100 nM) was 4.4 fold, the “number of 40 RARE-containing human genes induced ≧1.5-fold” value (MCF-7, LGD1550 100 nM) was “seven” and the “response of RARE-containing genes induced by both ligands, agonist relative to antagonist” value (MCF-7, LGD1550 100 nM vs LG100815 10 μM) was 3-5 fold stronger. The “APXL2 239435_x_at fold induction, maximal effect of agonist” value [1] was 63.13 fold, the “APXL2 241935_at fold induction, maximal effect of agonist” value [1] was 5.82 fold and the “BF593636 228642_at fold induction, maximal effect of agonist” value [1] was 130.43 fold. The “CA448125 1557050_at fold induction, maximal effect of agonist” value [1] was 8.90 fold, the “CA448125 1557051_s_at fold induction, maximal effect of agonist” value [1] was 23.74 fold and the “CEACAM1 206576_s_at fold induction, maximal effect of agonist” value [1] was 16.23 fold. The “CP 228143_at fold induction, maximal effect of agonist” value [1] was 10.88 fold, the “CP 1558034_s_at fold induction, maximal effect of agonist” value [1] was 44.25 fold and the “CYP1A1 205749_at raw signal, maximal effect of agonist” value [1] was 35.09. For the same molecule, the “GBP3 223434_at fold induction, maximal effect of agonist” value [1] was 7.32 fold, the “HOXA3 230080_at fold induction, maximal effect of agonist” value [1] was 10.38 fold and the “HPS3 227253_at fold induction, maximal effect of agonist” value [1] was 21.01 fold. The “HSXIAPAF1 228617_at fold induction, maximal effect of agonist” value [1] was 17.54 fold, the “IGFBP3 212143_s_at fold induction, maximal effect of agonist” value [1] was 16.12 fold and the “KRT4 213240_s_at fold induction, maximal effect of agonist” value [1] was 9.38 fold. The “OAS2 204972_at fold induction, maximal effect of agonist” value [1] was 15.91 fold, the “RNASE1 201785_at fold induction, maximal effect of agonist” value [1] was 49.39 fold and the “SLC1A1 213664_at fold induction, maximal effect of agonist” value [1] was 8.96 fold. For the same molecule, the “TRIM31 215444_s_at fold induction, maximal effect of agonist” value [1] was 12.16 fold, the “CYP26A1 206424_at fold induction, maximal effect of agonist” value [2] was 220 fold and 220.23 fold and the “HOXA1 214639_s_at fold induction, maximal effect of agonist” value [2] was 95 fold. For the same molecule, the “Maximal effect, Fold induction” value (gene ACVR1B, Genbank NM_020327, probe 208223_s_at) was 2.81 fold, the “Maximal effect, Fold induction” value (gene ADFP, Genbank BC005127, probe 209122_at) was 2.05 fold and the “Maximal effect, Fold induction” value (gene AKAP13, Genbank AK022014, probe 222024_s_at) was 2.03 fold. The “Maximal effect, Fold induction” value (gene AMIGO, Genbank AA001423, probe 226718_at) was 2.40 fold, the “Maximal effect, Fold induction” value (gene ARHGAP5, Genbank AK023014, probe 233849_s_at) was 2.03 fold and the “Maximal effect, Fold induction” value (gene ARMCX3, Genbank AL121883, probe 222444_at) was 2.01 fold. The “Maximal effect, Fold induction” value (gene BHLHB2, Genbank NM_003670, probe 201170_s_at) was 3.46 fold, the “Maximal effect, Fold induction” value (gene CASP2, Genbank BC002427, probe 209811_at) was 3.72 fold and the “Maximal effect, Fold induction” value (gene CDKL5, Genbank AI611074, probe 227004_at) was 3.20 fold. The “Maximal effect, Fold induction” value (gene CHP, Genbank NM_007236, probe 207993_s_at) was 2.32 fold, the “Maximal effect, Fold induction” value (gene CRTAP, Genbank AA025858, probe 227138_at) was 2.07 fold and the “Maximal effect, Fold induction” value (gene CTMP, Genbank AI184512, probe 229253_at) was 2.03 fold. For the same molecule, the “Maximal effect, Fold induction” value (gene DKFZp434H2226, Genbank AL137370, probe 232893_at) was 2.04 fold, the “Maximal effect, Fold induction” value (gene DKFZp434K2435, Genbank AL136855, probe 223594_at) was 2.08 fold and the “Maximal effect, Fold induction” value (gene DNCL2B, Genbank AW959427, probe 238116_at) was 2.02 fold. The “Maximal effect, Fold induction” value (gene DSCR1, Genbank NM_004414, probe 208370_s_at) was 3.64 fold, the “Maximal effect, Fold induction” value (gene DUSP3, Genbank NM_004090, probe 201538_s_at) was 2.94 fold and the “Maximal effect, Fold induction” value (gene DUSP16, Genbank AY038927, probe 1555399_a_at) was 2.30 fold. The “Maximal effect, Fold induction” value (gene FLJ10996, Genbank NM_019044, probe 219774_at) was 2.02 fold, the “Maximal effect, Fold induction” value (gene FLJ11196, Genbank NM_018357, probe 218651_s_at) was 2.24 fold and the “Maximal effect, Fold induction” value (gene FLJ30656, Genbank BF197707, probe 212529_at) was 2.09 fold.

Reference: patent publication US20060217305A1, “Induction of tumor cell senescence by retinoid receptor agonists and antagonists” (Ordway Research Institute, Inc., priority 2005, published 2006)
